Data published in patent US7855199B2, “Heterocyclic compound and anti-malignant-tumor agent containing the same as active ingredient” (Zenyaku Kogyo Kabushiki Kaisha, priority 2004, dated 2010).

What was measured:
[1] = Test 1 (Pharmacokinetics Study), oral administration to mice, serum drug concentration by HPLC; format: in vivo; conditions: male, BDF1, mouse, oral 200 mg/kg, mice fasting for 16 hours, 1-24 hours after administration, read-out: AUC1h-24h
Description: Pharmacokinetics study was conducted, using six-week-old BDF1 male mice. Test compound was dissolved in dichloromethane together with hydroxypropyl cellulose (low-molecular weight)(HPC(L)) 2.5 times as much as the drug weight, dried under reduced pressure and was suspended in distilled water so as to have the drug concentration of 20 mg/mL. The test compound was forcedly orally administered to mice fasting for 16 hours with dose of 200 mg/kg. One, two, four, eight and 24 hours after the administration, blood was collected from orbit of two mice to obtain serum 100 μL of the obtained serum was added with internal standard solution and 1 mL of distilled water and then test compound and internal standard substance were extracted from the resulting mixture by diethyl ether. The organic layers were evaporated to dryness under reduced pressure and residues were dissolved in eluent to obtain HPLC measurement sample. The analysis was performed by HPLC with reversed-phase column and the eluent used was acetonitrile-phosphate buffer (pH 2.5). The drug concentration in the test serum was calculated by the calibration curve (Y=aX+b) obtained from standard substance. Area under the curve (AUC1h-24h) was calculated from the drug concentration in the serum, using WinNonlin (produced by the firm Pharsight, ver. 4.01).

Human colon cancer WiDr [2] = assay: Test 2 (In Vivo Antitumor Test), subcutaneous WiDr tumor in nude mice; parameters: species or system mutant BALB/c nude mice; key to evaluation: Cases where T/C (%) of the last day was less than 50% and U-assay of Mann-Whitney revealed significant difference with one-sided risk rate of 1% were evaluated to be effective (+); ineffective (−); conditions: oral 100 mg/kg once a day, six times a week, for two weeks; for evaluation: T/C of the last day and Mann-Whitney U-assay; for T/C (%): relative tumor growth rate, last day
Description: Human colon cancer WiDr was grown as subcutaneous tumor in mutant BALB/c nude mice. 2-mm-cube tumor fragments were transplanted subcutaneously into left flank of the nude mice. When the tumor reached logarithmic growth phase, mice were divided randomly into test groups consisting five mice per group. The samples prepared by dissolving test compound in dichloromethane with a ratio of the test compound to HPC(L) being 1:2.5, dried under reduced pressure and suspended in distilled water. The samples were then orally administered at a rate of test compound 100 mg/kg, once a day and six times a week in total, for two weeks. The length and width of the tumor mass were measured on a daily basis to calculate tumor volume. The tumor volume at each measured day was divided by that at the start day of the sample administration to calculate relative tumor growth rate; and the relative tumor growth rate of the treated groups (T) and that of the control group (C) were used to calculate T/C(%).

Human colon cancer WiDr [3] = assay: in vitro antitumor test (50% growth inhibition concentration); format: cell-based
Description: This was also supported by the results of Table 3 below showing test results of in vitro antitumor test (comparative tests in 50% growth inhibition concentrations (GI50 μM) to Human colon cancer WiDr).

Row | SMILES | melting point [°C] | AUC(0-t) [1] [ng·h/mL] | GI50 (Human colon cancer WiDr [3]) [nM] | evaluation (Human colon cancer WiDr [2]) | T/C (%) (Human colon cancer WiDr [2])
1 | COc1cccc2c1nc(C(F)F)n2-c1nc(N2CCOCC2)cc(N2CCOCC2)n1 [compound 5, 2-(2-difluoromethyl-4-methoxybenzimidazol-1-yl)-4,6-dimorpholinopyrimidine] | 203 to 205 |  |  |  | 
2 | COc1cccc2c1nc(C(F)F)n2-c1nc(N2CCOCC2)cc(N2CCO[C@@H](C)[C@H]2C)n1 (relative stereo) [compound 3, 2-(2-difluoromethyl-4-methoxybenzimidazol-1-yl)-4-(cis-2,3-dimethylmorpholino)-6-morpholinopyrimidine] | 176 to 178 | 87000 |  |  | 
3 | COc1cccc2c1nc(C(F)F)n2-c1nc(N2CCOCC2)nc(N2C[C@@H](C)O[C@@H](C)C2)n1 [compound 6, 2-(2-difluoromethyl-4-methoxybenzimidazol-1-yl)-4-(cis-2,6-dimethylmorpholino)-6-morpholino-1,3,5-triazine] | 235 to 237 |  |  |  | 
4 | COc1cccc2c1nc(C(F)F)n2-c1nc(N2CCOCC2)cc(N2C[C@@H](C)O[C@@H](C)C2)n1 [compound 1, 2-(2-difluoromethyl-4-methoxybenzimidazol-1-yl)-4-(cis-2,6-dimethylmorpholino)-6-morpholinopyrimidine] |  | 332000 | 450 | + (Cases where T/C (%) of the last day was less than 50% and U-assay of Mann-Whitney revealed significant difference with one-sided risk rate of 1% were evaluated to be effective (+)) | 35.7
5 | CCOc1cccc2c1nc(C(F)F)n2-c1nc(N2CCOCC2)cc(N2CCOCC2)n1 [compound 8, 2-(2-difluoromethyl-4-ethoxybenzimidazol-1-yl)-4,6-dimorpholinopyrimidine] | 188 to 190 |  |  |  | 
6 | COc1cccc2c1nc(C(F)F)n2-c1nc(N2CCOCC2)cc(N2CCOC(C)(C)C2)n1 [compound 2, 2-(2-difluoromethyl-4-methoxybenzimidazol-1-yl)-4-(2,2-dimethylmorpholino)-6-morpholinopyrimidine] | 166 to 168 | 146000 | 140 | + (Cases where T/C (%) of the last day was less than 50% and U-assay of Mann-Whitney revealed significant difference with one-sided risk rate of 1% were evaluated to be effective (+)) | 28.8
7 | COc1cccc2c1nc(C(F)F)n2-c1nc(N2CCOCC2)cc(N2C[C@H](C)O[C@@H](C)C2)n1 (relative stereo) [compound 4, 2-(2-difluoromethyl-4-methoxybenzimidazol-1-yl)-4-(trans-2,6-dimethylmorpholino)-6-morpholinopyrimidine] |  | 138000 |  |  | 
8 | COc1cccc2c1nc(C(F)F)n2-c1nc(N2CCOCC2)nc(N2CC(C)(C)OCC2(C)C)n1 [compound 7, 2-(2-difluoromethyl-4-methoxybenzimidazol-1-yl)-4-(2,2,5,5-tetramethylmorpholino)-6-morpholino-1,3,5-triazine] | 209 to 211 |  |  |  | 

Further lines, with some results ahead:

Row | melting point [°C] | AUC(0-t) [1] [ng·h/mL] | GI50 (Human colon cancer WiDr [3]) [nM] | SMILES | evaluation (Human colon cancer WiDr [2]) | T/C (%) (Human colon cancer WiDr [2])
9 | 114 to 116 | 88000 |  | CCOc1cccc2c1nc(C(F)F)n2-c1nc(N2CCOCC2)cc(N2CCOC(C)(C)C2)n1 [compound 9, 2-(2-difluoromethyl-4-ethoxybenzimidazol-1-yl)-4-(2,2-dimethylmorpholino)-6-morpholinopyrimidine] |  | 
10 |  | 5000 | 90 | CC1(C)CN(c2cc(N3CCOCC3)nc(-n3c(C(F)F)nc4c(O)cccc43)n2)CCO1 [compound B, 2-(2-difluoromethyl-4-hydroxybenzimidazol-1-yl)-4-(2,2-dimethylmorpholino)-6-morpholinopyrimidine, reference compound] | − | 88.4
11 |  | 17000 |  | C[C@@H]1OCCN(c2cc(N3CCOCC3)nc(-n3c(C(F)F)nc4c(O)cccc43)n2)[C@@H]1C (relative stereo) [compound C, 2-(2-difluoromethyl-4-hydroxybenzimidazol-1-yl)-4-(cis-2,3-dimethylmorpholino)-6-morpholinopyrimidine, reference compound] |  | 
12 |  | 68000 |  | C[C@H]1CN(c2cc(N3CCOCC3)nc(-n3c(C(F)F)nc4c(O)cccc43)n2)C[C@H](C)O1 (relative stereo) [compound D, 2-(2-difluoromethyl-4-hydroxybenzimidazol-1-yl)-4-(trans-2,6-dimethylmorpholino)-6-morpholinopyrimidine, reference compound] |  | 
13 |  | 17000 | 150 | C[C@@H]1CN(c2cc(N3CCOCC3)nc(-n3c(C(F)F)nc4c(O)cccc43)n2)C[C@H](C)O1 [compound A, 2-(2-difluoromethyl-4-hydroxybenzimidazol-1-yl)-4-(cis-2,6-dimethylmorpholino)-6-morpholinopyrimidine] | − | 78.3
